Assay results as given in patent publication US7648993B2, “Methods of treating disorders with Group I mGluR antagonists” (Brown University, priority 2001, dated 2010).
Entries after “also recorded” stand apart in the source; their conditions may differ.

Legend:
[1] = system: cultured hippocampal neurons; experiment: Acid strip immunocytochemistry for internalized GluR1 (AMPARs); format: cell-based, rat; conditions: for effect on DHPG/mGluR-stimulated internalization of GluR1 (in words): APV 50 μM, cycloheximide 60 μM applied 15 min before DHPG; for effect on basal levels of internalized puncta (in words): without DHPG
[2] = system: hippocampal area CA1 slices; experiment: Field potential (FP) recordings in area CA1 of rat hippocampal slices (DHPG-LTD); format: cell-based, Long Evans rats
Protocol: All animals were used in accordance with procedures approved by the Brown University Institutional Animal Care and Use Committee. Hippocampal slices were prepared from postnatal day 21-30 (P21-30) Long Evans rats (Charles River, Cambridge, Mass.) and mGluR5 knockout mice (Lu et al. 1997) as described previously (Huber et al. 2000). For most experiments, CA3 was removed immediately after sectioning. Slices recovered for 1-2 h at room temperature (rats) or at 30° C. (mice) in artificial cerebrospinal fluid (ACSF) containing (in mM) 124 NaCl, 5 KCl, 1.25 NaH2PO4, 26 NaHCO3, 1 MgCl2, 2 CaCl2, and 10 dextrose, saturated with 95% O2-5% CO2. For recording, slices were placed in a submersion recording chamber and perfused with 30° C. ACSF at a rate of 2 ml/min.
Synaptically evoked field potentials (FPs) were recorded from area CA1 as described previously. Sharp microelectrode and whole cell voltage-clamp recordings were made using Axoclamp 2B and Axopatch 1D amplifiers (Axon Instruments), respectively. Sharp electrodes (80-120 M Ω) were filled with 3 M K-acetate and 10 mM KCl; patch pipettes (3-7 M Ω) were filled with (in mM) 134 K-gluconate, 6 KCl, 4 NaCl, 10 HEPES, 0.2 EGTA, 4 MgATP, 0.3 TrisGTP, and 14 phosphocreatine. The pH of the internal solution was adjusted to 7.25 with KOH, and the osmolarity was adjusted to 300 mOsm with H2O or sucrose. Only experiments in which there was less than a 15% change in series resistance were included in the analysis. Waveforms were filtered at 2 kHz and acquired and digitized at 10 kHz on a PC using Experimenter's Workbench (DataWave Systems, Boulder, Colo.).
Baseline responses were collected every 10-30 s using a stimulation intensity (10-30 μA; 0.2 ms) yielding 50-60% of the maximal response. Experiments in which there was a>5% drift in the response magnitude during the 20-min baseline period before DHPG or LFS were excluded from further analysis. All experiments with mGluR5 KO mice used wildtype littermates as controls and were performed blind to the genotype, later determined by Therion (Troy, N.Y.). LFS consisted of 900 pulses at 1 Hz. PP-LFS consisted of 900 pairs of stimuli (50-ms interstimulus interval) delivered at 1 Hz. In saturation experiments, stimulus duration was increased from 0.2 to 0.4 ms during PP-LFS.
The group data were analyzed as follows: 1) the initial slopes of the FPs and excitatory postsynaptic potentials (EPSPs), or the amplitude of the excitatory postsynaptic currents (EPSCs), for each experiment were expressed as percentages of the preconditioning or DHPG baseline average, 2) the time scale in each experiment was converted to time from the onset of conditioning or DHPG, and 3) the time-matched, normalized data were averaged across experiments and expressed in the text and figures as the means ±SE. Significant differences between groups were determined using an independent t-test or ANOVA performed on a 5-min average taken 1 h after LFS or DHPG application.
R,S-DHPG and D-2-amino-5-phosphonopentanoic acid (D-AP5) was purchased from Tocris (St. Louis, Mo.); all other chemicals were from Sigma Chemical (St Louis, Mo.). DHPG was prepared as a 100 times stock in H2O, aliquoted and stored at −20° C. Fresh stocks were made once a week. A 10 times stock of AP5 was prepared in ACSF and stored at 4° C. These stocks were diluted in ACSF to achieve their final concentrations. Picrotoxin was dissolved directly into ACSF immediately before use.

[3] = system: cultured hippocampal neurons; experiment: Immunocytochemical localization of surface synaptic receptors (GluR2, GluR1, NR1, GABAAβ1); format: cell-based, rat; conditions: for GluR1-positive synapses: cycloheximide 60 μM applied 15 min before DHPG where named
Text: We next determined if the DHPG-induced increase in internalized AMPARs is accompanied by a net decrease in surface-expressed receptor clusters at synapses. At various intervals after DHPG washout, cells were fixed and surface GluR2 or GluR1 was labeled with N-terminal antibodies without permeabilization. The cultures were then permeabilized, and synapses were labeled using an antibody against the presynaptic marker synapsin I or synaptophysin coupled to the appropriate secondary antibody. Under control conditions, most synapses were immunoreactive for AMPAR clusters (GluR2, 80.6±9.0%; n=10 cells, 200 synapses, FIGS. 5A-D; GluR1, 72.5±4.7%; n=15 cells, 225 synapses; FIGS. 5E and F).
Following experimental treatment, low-density cultures were fixed in 4% paraformaldehyde with 4% sucrose for 5 min. Cultures were rinsed in PBS and then blocked in PBS with 20% fetal bovine serum for 1 h. Cultures were stained with N-terminal receptor antibodies overnight at 4° C. (GluR2, 1:100, Chemicon, Ternecula, California; GluR1, 1:100, gift of R. Huganir; NR1, 1:500, Chemicon MAB363; GABAAβ1, 1:100 Santa Cruz Biologicals, Santa Cruz, Calif.). Cultures were then rinsed in blocking buffer containing 0.1% Triton-X for 20 min and exposed to antibodies directed against presynaptic proteins (synapsin 1, 1:1000, Chemicon; synaptophysin, 1:100, Boehringer Manheim, Irvine, Calif.) for 1 h at room temperature. Cultures were then rinsed and exposed to the appropriate fluorescent secondary antibodies (Jackson Immunoresearch, West Grove, Pa.).
Microscopy was performed with a Nikon E800 microscope using a 60×1.4 NA objective (Melville, N.Y.). Fluorescence images were collected with a Sensys cooled CCD camera and analyzed using IP-Labs software. Additional images were collected with a Olympus Flowview confocal microscope with a 60×1.2 NA objective. All analyses were performed blind to the stimulation history of the culture. Microscopic fields had 1-3 neurons displaying smooth soma and generally healthy morphology with multiple distinct processes. Immunofluorescence was analyzed along the proximal 50 μm of 3 or more dendrites per neuron. Immunoreactive puncta were defined as discrete points along the dendrite with fluorescence intensity twice the background staining of the neuron. Five cells were analyzed per culture and 3-6 cultures were analyzed per condition. Separate controls were performed with each experiment and a Student's t-test was used to determine statistical significance. Data are expressed as puncta per 10 μm of dendrite unless stated otherwise.

[4] = system: high-density cultured hippocampal neurons; experiment: Biotinylation and quantitative western blot of surface expressed receptors; format: cell-based, rat; conditions: DHPG 50 μM, 5 min; 60 minutes later; cycloheximide 60 μM with DHPG where named
Protocol: To confirm the effect of mGluR activation on surface AMPARs using an alternative approach, we treated high-density cultures with DHPG (50 μM, 5 min) or control medium and surface receptors were labeled with biotin 60 minutes later. Biotinylated receptors were precipitated and the ratio of surface to total GluR1 was determined by quantitative western blotting. This biochemical analysis confirmed that surface AMPARs are reduced by DHPG treatment to only 56.8±4.0% of the value in control cultures (n=4 in each treatment group; p<0.01; FIG. 6).
Biotinylation experiments were performed as previously described^35. Briefly, 2-week-old high-density cultured hippocampal neurons were treated with either control medium or 50 μM DHPG for 5 min, and incubated for 1 h at 37° C. to allow endocytosis to occur. The sister cultures were placed on ice to stop endocytosis and washed two times with ice-cold artificial cerebrospinal fluid (ACSF) containing 124 mM NaCl, 5 mM KCl, 1.25 mM NaH2PO4, 26 mM NaHCO3, 0.8 mM MgCl2, 1.8 mM CaCl2, 10 mM dextrose, and saturated with 95% O2, 5% CO2. Cultures were then incubated with ACSF containing 1 mg/ml Sulfo-NHS-LC-Biotin (Pierce Chemical Company, Rockford, Ill.) for 30 min on ice. Cultures were rinsed in TBS to quench the biotin reaction. […] Quantitative western blots were performed on both total and biotinylated (surface) proteins using anti-GluR1 C-terminal (1:1000, Upstate Biotechnology, Lake Placid, N.Y.) and anti-NR1 N-terminal antibodies (1:1000, Chemicon). […] Digital images, produced by densitometric scans of autoradiographs on a ScanJet IIcx (Hewlett Packard, Palo Alto, Calif.) with DeskScan II software (Hewlett Packard), were quantified using NIH Image 1.60 software. The surface/total ratio was calculated for each culture, and treatment groups were compared using a paired t-test. […] For display purposes, the data are expressed as the ratio of DHPG to control values.

N[C@H](CCCP(=O)(O)O)C(=O)O [AP5, D-2-amino-5-phosphonopentanoic acid] was tested, and the “effect on DHPG/mGluR-stimulated internalization of GluR1 (in words)” value ([1]; LY344545 100 μM) was “no effect”, the “effect on the magnitude of DHPG-LTD (in words)” value ([2]; AP5 50 μM) was “no effect” and the “magnitude of DHPG-LTD in the presence of AP5” value ([2]; AP5 50 μM preincubation, DHPG 50 μM, 5 min) was 83±3%.
For N[C@](CC1c2ccccc2Oc2ccccc21)(C(=O)O)[C@@H]1C[C@H]1C(=O)O [LY344545], the “internalized GluR1 puncta, LY344545 experiment” value ([1]; DHPG 50 μM, 5 min, LY344545 100 μM) was 0.32±0.08 puncta per 10 μm of dendrite and the “effect on DHPG/mGluR-stimulated internalization of GluR1 (in words)” value ([1]; LY344545 100 μM) was “completely blocked”.
COc1ccc(C[C@H]2NC[C@H](O)[C@H]2OC(C)=O)cc1 [anisomycin] was tested, and the “effect on DHPG/mGluR-stimulated internalization of GluR1 (in words)” value ([1]; LY344545 100 μM) was “blocked” and the “effect on basal levels of internalized puncta (in words)” value [1] was “Neither cycloheximide nor anisomycin had any significant effect”.
In the case of C[C@@H]1C[C@@H]([C@H](O)CC2CC(=O)NC(=O)C2)C(=O)[C@@H](C)C1 [cycloheximide], the GluR1-positive synapses ([3]; 15 min after DHPG) is reported as 37.8±3.8%, the GluR1-positive synapses ([3]; 60 min after DHPG) is reported as 55.7±5.1% and the NR1-positive synapses ([3]; 60 minutes after DHPG treatment, with cycloheximide where named) is reported as 42+5%. The “effect on DHPG/mGluR-stimulated internalization of GluR1 (in words)” value ([1]; LY344545 100 μM) was “significantly inhibited; also recorded: decreases”, the “internalized GluR1 puncta, cycloheximide experiment” value ([1]; measured at 60 minutes, chx 60 μM applied 15 min before DHPG) was 0.76±0.09 puncta per 10 μm of dendrite and the “effect on basal levels of internalized puncta (in words)” value [1] was “Neither cycloheximide nor anisomycin had any significant effect”. The “surface NR1 (surface/total), % of the value in control cultures” value [4] was 79.1±14.5%.
For N[C@@H](Cn1oc(=O)[nH]c1=O)C(=O)O [quisqualic acid], the “LTD of FP, % of baseline” value ([2]; quisqualic acid 5 μM, 5 min) was 81±2% and the “LTD induced with quisqualic acid in the presence of AP5” value ([2]; quisqualic acid 5 μM, with AP5) was 79±2%.
